In US11839614B2, “Methods for treating or mitigating cardiotoxicity characterized by inhibition of adenosine A2 signaling and/or adenosine A2 receptor expression” (INTRA-CELLULAR THERAPIES, INC., priority 2018, dated 2023):

Experiments:
[1] = biological target: T1, r-hPDE1A (Homo sapiens, UniProt P54750); test: Ki for full-length recombinant PDE1A; format: biochemical
T1 construct: Its Kis for full-length recombinant r-hPDE1A, 1B, and 1C are 34, 380, and 37 pM
Text: (§1) Additional pharmaceuticals used in the following examples are dobutamine (Hospira Inc., Lake Forest, Ill.), esmolol HCl (Mylan, Rockford, Ill.), MRS1754 (Tocris Bioscience, Bristol, UK), and Hespan (6% Hetastarch in 0.9% NaCl B. Braun Medical Inc., Bethlehem, Pa.).

[2] = biological target: T2, r-hPDE1C (Homo sapiens, UniProt Q14123); test: Ki for full-length recombinant PDE1C; format: biochemical
T2 construct: Its Kis for full-length recombinant r-hPDE1A, 1B, and 1C are 34, 380, and 37 pM
T2 sequence (Q14123 whole entry): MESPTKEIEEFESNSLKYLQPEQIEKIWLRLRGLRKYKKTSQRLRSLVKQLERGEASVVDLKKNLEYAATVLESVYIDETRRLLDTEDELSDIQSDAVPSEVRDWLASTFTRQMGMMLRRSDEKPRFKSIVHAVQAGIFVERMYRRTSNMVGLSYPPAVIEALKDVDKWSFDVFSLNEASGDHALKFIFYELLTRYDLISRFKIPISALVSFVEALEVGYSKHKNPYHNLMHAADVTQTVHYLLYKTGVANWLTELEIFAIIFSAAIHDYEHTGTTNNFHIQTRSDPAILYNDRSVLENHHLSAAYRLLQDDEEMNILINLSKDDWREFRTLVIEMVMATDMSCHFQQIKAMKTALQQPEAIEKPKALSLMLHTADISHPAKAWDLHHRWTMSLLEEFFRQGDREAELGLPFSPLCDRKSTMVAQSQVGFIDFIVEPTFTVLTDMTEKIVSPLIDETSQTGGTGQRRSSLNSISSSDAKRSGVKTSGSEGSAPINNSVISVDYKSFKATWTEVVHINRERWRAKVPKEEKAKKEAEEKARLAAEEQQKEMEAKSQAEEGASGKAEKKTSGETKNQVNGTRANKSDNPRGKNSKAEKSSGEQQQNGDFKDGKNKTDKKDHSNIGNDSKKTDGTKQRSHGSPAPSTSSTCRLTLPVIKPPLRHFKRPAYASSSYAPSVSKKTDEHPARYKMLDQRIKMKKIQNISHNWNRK
Text: as §1

[3] = biological target: PDE4D (Homo sapiens, UniProt Q08499)
PDE4D, sequence (Q08499 whole entry, species assumed): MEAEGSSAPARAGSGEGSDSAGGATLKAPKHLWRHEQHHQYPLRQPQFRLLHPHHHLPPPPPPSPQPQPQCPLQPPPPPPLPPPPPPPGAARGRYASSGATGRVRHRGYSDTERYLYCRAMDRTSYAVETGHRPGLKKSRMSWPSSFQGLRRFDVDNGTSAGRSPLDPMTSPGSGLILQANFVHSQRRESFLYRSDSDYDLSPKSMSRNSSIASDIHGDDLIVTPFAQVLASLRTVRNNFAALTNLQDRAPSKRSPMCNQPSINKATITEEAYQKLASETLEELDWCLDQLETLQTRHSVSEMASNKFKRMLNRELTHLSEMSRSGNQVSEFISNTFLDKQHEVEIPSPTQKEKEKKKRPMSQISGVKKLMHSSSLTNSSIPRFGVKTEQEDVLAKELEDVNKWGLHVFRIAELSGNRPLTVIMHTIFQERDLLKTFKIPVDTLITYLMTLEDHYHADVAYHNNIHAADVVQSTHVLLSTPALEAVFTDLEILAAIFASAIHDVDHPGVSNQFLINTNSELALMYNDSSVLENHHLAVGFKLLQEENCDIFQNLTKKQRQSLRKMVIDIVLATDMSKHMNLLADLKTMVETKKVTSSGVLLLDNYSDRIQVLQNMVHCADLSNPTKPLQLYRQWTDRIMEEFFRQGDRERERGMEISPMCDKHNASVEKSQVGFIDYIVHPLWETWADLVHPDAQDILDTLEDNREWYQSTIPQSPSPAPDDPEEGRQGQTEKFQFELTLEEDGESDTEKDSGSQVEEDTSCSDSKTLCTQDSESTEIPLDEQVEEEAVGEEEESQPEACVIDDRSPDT
Text: as §1

[4] = tested on: normal and failing canine hearts; test: Conscious dog pressure-volume hemodynamic analysis, normal and failing hearts; format: in vivo
Text: Dogs are studied in the conscious state before and after inducing dilated cardiomyopathy by tachypacing for two weeks at 200 bpm. […]
Load insensitive indexes of contractility (dP/dtmax/IP and PRSW) increased.

[5] = tested on: plasma cAMP and cGMP; test: Plasma cAMP and cGMP by ELISA in dogs; format: in vivo, dog
Description: Blood plasma is obtained from these animals, and cAMP and cGMP are assayed by ELISA.

[6] = tested on: rabbit heart and vasculature; test: Anesthetized rabbit pressure-volume hemodynamics with or without esmolol or MRS-1754; format: in vivo
Text: Cyclic AMP is generated largely by transmembrane adenylyl cyclases activated via stimulatory G protein (Gs), with β-adrenergic, adenosine (primarily A2B), glucagon, prostanoids, histamine, and serotonin all coupling to Gs in cardiomyocytes. The present studies focus on beta-adrenergic and adenosine receptors, and for the latter, concentrated on the A2B receptor, which has been reported to directly stimulate cAMP-dependent contractility. […] Relaxation changes are also modest with LV preload (end-diastolic and volume) unaltered; however, the combined vasodilator-inotropic response doubled ventricular/arterial coupling ratio, Ees/Ea.
(§2) New Zealand White rabbits (male, 2-3 kg) are sedated with 35 mg/kg ketamine and 5 mg/kg xylazine, intubated and ventilated (Model 683, Harvard Apparatus, Holliston, Mass.), with anesthesia maintained with isoflurane inhalation (1-2%). A pressure-volume catheter (SPR-894, Millar, Inc., Houston, Tex.) is inserted via the common carotid artery and advanced to the LV apex, and a 2-Fr pacing catheter is positioned in the right atrium via the right jugular vein to provide atrial pacing. […] The parallel conductance is determined by the hypertonic saline injection method. Rabbits are infused with 6% hetastarch in saline during the procedure to stabilize arterial pressure.

[7] = Plasma level in rabbits (LC/MS-MS); format: in vivo; settings: male, New Zealand White, iv, rabbit, 0.1 mg/kg i.v.
Description: as §2
Intravenous blood is placed in K2EDTA tubes, centrifuged at 2,000 g for 15 min, plasma decanted, and stored frozen. Compound 1 levels are assessed by a rapid, sensitive liquid chromatography-tandem mass spectrometric (LC/MS-MS) method.
The mobile phase consists of a gradient of 60-100% methanol over 4.5 minutes in 5 mM ammonium bicarbonate with 0.2% NH3H2O, pumped at a flow rate of 0.8 mL/min. Analysis time is 4.5 min and both the analyte and internal standard eluted around 2.0 min. Multiple reactions monitoring (MRM) mode is used to detect Compound 1. MS is operated in the positive ion detection mode. […] The lower limit of quantification (LLOQ) for plasma was 0.02 ng/mL.

[8] = Plasma level in mice; format: in vivo; settings: iv, mouse, 15 minutes after i.v. dosing
Description: Rabbit dosing at 0.1 mg/kg i.v. yields plasma values of 213±88 ng/mL at 15 min. Mouse plasma levels 15 minutes after i.v. dosing was 334+/−74 ng/mL. Therapeutic levels are 100-300 ng/mL, and so analysis is presented after 120 min for P.O. and after 20 min for i.v. (somewhat sooner in rabbit and mouse due to faster kinetics).
(§3) To test this, mice were administered the same or higher intravenous bolus doses (0.1, 0.5 mg/kg) as used in dogs and rabbits, and studied using a similar preparation to the rabbit.

[9] = tested on: murine heart; test: Acute cardiovascular effects in intact mice; format: in vivo, mouse; settings: intravenous bolus 0.1, 0.5 mg/kg
Description: as §3

[10] = tested on: adult rabbit myocytes; test: Contraction and calcium transients in isolated rabbit cardiomyocytes; format: cell-based
Description: To test whether PDE1 inhibition directly impacts cardiomyocyte contraction and calcium transients, studies are carried out on normal adult rabbit myocytes. […] As PDE1 requires sufficient cAMP and Ca^2+ to be impactful, a dose response was performed to the adenylate cyclase activator, forskolin (FSK) to determine the lowest dose producing a modest but significant inotropic effect (1 μM).
Rabbit myocytes were isolated to determine the effect of PDE1 inhibition on cardiomyocyte contraction and whole cell Ca2+ transients, and to compare the results to those with a PDE3 inhibitor, cilostamide (Cil, 1 μM).
An alternative approach to augmenting cAMP independent of […] is to directly stimulate adenylate cyclase using forskolin (Fsk). A dose response study was carried out to identify a non-saturating Fsk dose that still generated significant inotropic effects (1 μM).

[11] = tested on: myocyte cAMP; test: Whole cell cAMP in isolated rabbit myocytes; format: cell-based; settings: agent added to Fsk
Text: This is consistent with prior studies showing locally generated cAMP from β-AR and its modulation by PDE3 occur in local subcellular domains that are not easily detected in whole cell lysates32.

[12] = control and HF dogs, 10 mg/kg oral, two hours
[13] = Compound 1 added after forskolin 1 μM
[14] = agent added to non-saturating Iso
[15] = agent alone: Cil 1 μM, Compound 1 1 μM, Iso non-saturating dose
[16] = agent alone: Iso 50 nM, Compound 1 up to 1 mM, IBMX 100 μM

T1 sequence (P54750 whole entry): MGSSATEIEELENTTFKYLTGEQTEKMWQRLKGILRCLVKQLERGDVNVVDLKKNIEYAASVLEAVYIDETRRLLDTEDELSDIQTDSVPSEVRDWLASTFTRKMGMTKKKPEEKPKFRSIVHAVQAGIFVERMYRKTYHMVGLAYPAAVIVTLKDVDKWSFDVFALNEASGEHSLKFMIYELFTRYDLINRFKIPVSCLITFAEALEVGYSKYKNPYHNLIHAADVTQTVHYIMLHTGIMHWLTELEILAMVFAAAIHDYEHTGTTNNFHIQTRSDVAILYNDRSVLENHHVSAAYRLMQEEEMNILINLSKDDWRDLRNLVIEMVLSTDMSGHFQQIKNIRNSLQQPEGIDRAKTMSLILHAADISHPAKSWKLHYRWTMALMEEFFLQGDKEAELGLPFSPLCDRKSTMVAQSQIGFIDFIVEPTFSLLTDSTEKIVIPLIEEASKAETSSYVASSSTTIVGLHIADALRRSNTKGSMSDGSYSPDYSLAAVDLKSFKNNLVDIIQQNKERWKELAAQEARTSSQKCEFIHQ

Structure (SMILES): CN1C(=O)c2c(nn(Cc3ccc(-c4cccc(F)n4)cc3)c2Nc2ccccc2)N2C1=N[C@@H]1CCC[C@@H]12 [Compound 1, (6aR,9aS)-2-(4-(6-fluoropyridin-2-yl)benzyl)-5-methyl-3-(phenyl-amino)-5,6a,7,8,9,9a-hexahydrocyclopenta-[4,5]imidazo[1,2-a]pyrazolo[4,3-e]pyrimidin-4-(2H)-one monophosphate]
- Ki [1]: 0.034 nM
- Ki [2]: 0.037 nM
- greater activity toward PDE1 isoforms compared with PDE4D [3]: > 1000 fold
- hemodynamic responses in all but heart rate ([4]; 0.01 mg/kg i.v.): negligible
- hemodynamic responses ([4]; 0.1 mg/kg i.v.): positive chronotropic, inotropic, lusitropic, and vasodilator responses were observed
- PV loop area (stroke work) and contractility ([4]; 10 mg/kg Compound 1 added to 10 μg/kg/min dobutamine, control and failing hearts): further enhanced both
- increase in heart rate ([4]; HF animals, 10 mg/kg oral): blunted
- augmentation of cardiac output ([4]; HF dogs, 10 mg/kg oral, two hours): 32%
- LV preload (end-diastolic volume) or systolic pressure [4, 12]: little change
- contractility (end-systolic elastance) [4, 12]: increase in contractility
- augmentation of cardiac output ([4]; control dogs, 10 mg/kg oral, two hours): 50%
- inotropy, lusitropy and vasodilation ([4]; heart failure dogs, 0.1 mg/kg i.v.): remained significantly improved
- time to peak hemodynamic response ([4]; intravenous, normal and HF dogs): 5 to 10 min
- heart rate ([4]; normal dogs, 10 mg/kg oral): increased heart rate
- relaxation (dP/dtmin and relaxation time constant tau) ([4]; normal dogs, 10 mg/kg oral): improved
- systemic vascular resistance ([4]; normal dogs, 10 mg/kg oral): reduced systemic vascular resistance
- systolic blood pressure ([4]; normal dogs, 10 mg/kg oral): without altering systolic blood pressure
- plasma cAMP ([5]; HF dogs, single drugs): not significantly changed
- plasma cGMP ([5]; all conditions, normal and HF models): remains unchanged
- cardiac output ([6]; 0.1 mg/kg i.v. bolus alone): increases cardiac output
- heart rate ([6]; 0.1 mg/kg i.v. bolus alone): modestly elevated heart rate
- rise in end-systolic elastance ([6]; 0.1 mg/kg i.v. bolus alone): 50%
- rise in pre-load recruitable stroke work ([6]; 0.1 mg/kg i.v. bolus alone): 50%
- systemic resistance ([6]; 0.1 mg/kg i.v. bolus alone): lowered systemic resistance
- systolic pressure ([6]; 0.1 mg/kg i.v. bolus alone): no change in systolic pressure
- contractile and vasodilation effects ([6]; Compound 1 after esmolol): remain intact
- heart rate ([6]; Compound 1 after esmolol): no longer increases HR
- responses with heart rate fixed compared with heart rate allowed to change ([6]; atrially paced at ~20% above sinus node rate): nearly identical responses
- concentration at 15 min [7]: 213 ± 88 ng/mL
- concentration at 15 min [8]: 334 ng/mL
- hemodynamic or cardiac changes [9]: failed to show any significant hemodynamic or cardiac changes
- peak calcium transient [10, 13]: remains unaltered
- relaxation/calcium decay rates [10, 13]: significantly increases
- sarcomere shortening [10, 13]: significantly increases
- shortening of calcium relaxation time constant, as share of the maximal achieved with IBMX ([10]; FSK+Compound 1 versus FSK+IBMX): 67%
- Ca2+ transient decay rate ([10]; agent added to Fsk 1 μM): enhanced the Ca2+ decay rate similarly to Cil
- peak Ca2+ transient ([10]; agent added to Fsk 1 μM): no corresponding increase in peak Ca2+ transient
- sarcomere shortening ([10]; agent added to Fsk 1 μM): sarcomere shortening rose as with Cil
- peak-Ca2+ [10, 14]: no longer significantly different from pre-Iso baseline
- sarcomere shortening [10, 14]: did not change further
- decay kinetics / relaxation times [10, 15]: this was not observed
- peak-Ca2+ transient [10, 15]: this was not observed
- percent sarcomere shortening [10, 15]: this was not observed
- contraction/calcium decay time or rates [10, 16]: no effect
- peak Ca2+ transient [10, 16]: no effect
- sarcomere shortening [10, 16]: no effect
- whole cell cAMP [11]: substantially increased
